Source: patent US20100076022A1, “NOVEL POLYMORPHS OF RIMONABANT” (HETERO DRUGS LIMITED, priority 2006, published 2010)

Key:
[1] = stability of the solid form over time; assay type: physicochemical; conditions: test conditions not given
[2] = dissolution rate of the solid form; assay type: physicochemical; conditions: amorphous form compared with crystalline form; test conditions not given

stability [1]	dissolution rate [2]	Structure (SMILES)
highly stable	better dissolution rate	Cc1c(C(=O)NN2CCCCC2)nn(-c2ccc(Cl)cc2Cl)c1-c1ccc(Cl)cc1 [amorphous rimonabant form]
stable over time		Cc1c(C(=O)NN2CCCCC2)nn(-c2ccc(Cl)cc2Cl)c1-c1ccc(Cl)cc1.O [crystalline rimonabant hydrate]
